According to US20210283087A1, “METHOD FOR TREATING AND RELIEVING MYOPIA” (China Medical University, priority 2014, published 2021):

Experiments:
[1] = test system: ARPE-19 human retinal pigment epithelial cells; experiment: Western blot of LPS-induced signaling in ARPE-19 cells (atropine); type: cell-based; settings: LPS + 100 μM atropine
Protocol: ARPE-19 human retinal pigment epithelial cells were obtained from the Bioresource Collection and Research Center, HsinChu, Taiwan (BCRC; BCRC-60383). Cells were cultured in DMEM with 10% FBS at 37° C. and 5% CO2, with medium replacement every 3 to 4 days. […] After treatment, 30 μg of total cell lysates was subjected to sodium dodecyl sulfate polyacrylamide gel electrophoresis (SDS-PAGE), followed by immunoblot analysis. Primary antibodies used included ERK (Thr202/Tyr204), AKT (Ser473), PI3K (p85[Tyr458]/p55[Tyr199]), NF-κB (p65, Ser536), and c-Fos (Ser32; Cell Signaling, Beverly, Mass., USA). Antirabbit or antimouse secondary antibody conjugated with horseradish peroxidase was also used. Immunoreactive protein bands were detected using an enhanced chemiluminescence kit (ECL, Pierce, Thermo Fisher Scientific, Pittsburgh, Pa., USA). Equal loading was confirmed through probing the blots with β-actin antibody (Abcam, Cambridge, Mass., USA) as well as anti-ERK, AKT, PI3K, NF-κB, and c-Fos.

[2] = test system: monocular form deprivation (MFD) Syrian hamster; experiment: Refractive power in monocular form deprivation (MFD) hamster model, streak retinoscope; type: in vivo, golden Syrian hamsters; settings: for Refractive power, BL: left eye before MFD / Refractive power, BR: right eye before MFD: baseline; for Refractive power, FL: left eye after MFD / Refractive power, FR: right eye after MFD (occluded eye): 21 days; for Refractive error FR-BR: MFD right eye; for Refractive error FL-BL: non-MFD left eye
Protocol: In this study, a total of 160 golden Syrian hamsters aged 3 weeks, weighing 80 to 90 g, and 20 albino guinea pigs, aged 2 to 3 weeks, were used for experiments. All animals were kept in a 12-hour light/dark cycle. All procedures were approved by the Institutional Animal Care and Use Committee of China Medical University and were conducted in accordance with the guidelines of the Use of Animals in Ophthalmic and Vision Research. Hamsters were raised with a right eyelid fusion for 21 days. Myopia was induced in the guinea pigs by covering the right eye with a cloth attached to the skin at a distance of at least 1 cm from the eye. MFD was induced in the right eye (with the left eye serving as a control) of animals randomly assigned to treatment or control groups (n=10 animals each) receiving daily applications of drug or phosphate-buffered saline (PBS), respectively, to both eyes.
The RE (i.e., spherical-component RE, which is defined as the mean RE in horizontal and vertical meridians) was measured using a hand-held streak retinoscope. Animals were anesthetized with 10% ether in O2. Ocular refraction was evaluated at the start and end of the experiment. At the end of the study, animals were sacrificed through CO2 asphyxiation according to the guidelines of the Public Health Service, Office of Laboratory Animal Welfare, National Institutes of Health, and American Association of Veterinary Medicine. Eyes were enucleated using a razor blade on an ice plate under a surgical microscope (Topcon, Tokyo, Japan) by cutting perpendicularly to the anterior-posterior axis approximately 1 mm posterior to the ora serrata. The iris and ciliary body of the anterior segment of the eye were separated. Posterior sclera was excised using a 7-mm-diameter trephine. The axial lengths were determined through A-scan ultrasonography (PacScan 300 Plus, NY, USA). The average of 10 unique measurements was used.

[3] = test system: Retinal cell (R28); experiment: Gene expression by real-time PCR in LPS-treated R28 retinal cells; type: cell-based, rat
Protocol: (§1) R28 rat retinal epithelial cells were provided by Gail Seigel at the Ross Eye Institute (SUNY, Buffalo, N.Y., USA). The cells were cultured in Dulbecco's modified Eagle's medium (DMEM) with 10% fetal bovine serum (FBS) at 37° C. and 5% CO2, with medium replacement every 3 days to 4 days. Sclera were placed in a 60-mm culture dish in DMEM supplemented with 10% FBS to isolate primary scleral fibroblasts; those from fewer than three passages were used in experiments. […] Cell lysates were collected for quantitative (q)PCR to determine gene expression levels.
(§2) Total RNA was extracted using the RNeasy MiniKit (Qiagen, Valencia, Calif., USA), and 5 μg of RNA was reverse-transcribed to cDNA by using the Superscript First Strand Synthesis system (Invitrogen, Carlsbad, Calif., USA). Primers and probes used for qPCR were selected from the Universal Probes Library (Roche, West Sussex, UK). Transcript levels were normalized to those of glyceraldehyde 3-phosphate dehydrogenase in each sample.

[4] = test system: sclera and retina of hamster eyes; experiment: Immunohistochemistry of hamster eyes (sclera, retina); type: in vivo
Protocol: Antigen retrieval was performed by boiling the slides in citrate buffer (pH 6.0); the sections were then stained with antibodies against IL-6, TNF-α, TGF-β, MMP2, c-Fos, NF-κB, and CHRM1 and 3. The EnVision System peroxidase kit (DAKO, Carpentaria, Calif., USA) was used to visualize immunoreactivity.

[5] = test system: Sclera fibroblast; experiment: Gene expression by real-time PCR in LPS-treated primary scleral fibroblasts; type: cell-based, hamster
Protocol: as §1, §2

[6] = test system: MMP2; experiment: Gelatin zymography of MMP2 activity in LPS-activated scleral fibroblasts and ARPE-19 cells; type: cell-based; settings: LPS + 100 μM atropine or LPS + 50 μM diacerein; 48 hours
Protocol: To facilitate subsequent analysis, 1×10^6 cells were seeded in 24-well plates for at least 12 hours. […] To measure the MMP-2/MMP-9 activities, samples were separated using 8% SDS-PAGE containing 0.1% gelatin.

[7] = Atropine 0.125%, listed as atropine
[8] = Atropine 0.5%, listed as atropine
[9] = Atropine 1%, listed as atropine
[10] = R28, 100 ng/ml LPS and 100 μM atropine for 4 hours
[11] = sclera fibroblast, 100 ng/ml LPS and 100 μM atropine for 4 hours

SMILES: CN1[C@@H]2CC[C@H]1C[C@@H](OC(=O)C(CO)c1ccccc1)C2 (stereo partly drawn) [Atropine, atropine]
- Activation of ERK through LPS and downstream c-FOS [1]: inhibited
- LPS activation of PI3K, AKT, and NF-κB [1]: inhibited
- Refractive power, BL: left eye before MFD ([2]; Atropine 0.125% group): 11.85 ± 0.18 D
- Refractive power, BR: right eye before MFD ([2]; Atropine 0.125% group): 11.9 ± 0.07 D
- Refractive power, FL: left eye after MFD ([2]; Atropine 0.125%): 8.32 ± 0.16 D
- Refractive power, FR: right eye after MFD (occluded eye) ([2]; Atropine 0.125%): 6.45 ± 0.1 D
- Refractive power, FL: left eye after MFD [2, 7]: 8.32±0.16 D
- Refractive power, FR: right eye after MFD (occluded eye) [2, 7]: 6.45±0.1 D
- Refractive error FR-BR ([2]; Atropine 0.125%): −5.45 ± 0.07 D
- Refractive error FL-BL ([2]; Atropine 0.125%): −3.53 ± 0.28 D
- Refractive power, BL: left eye before MFD ([2]; Atropine 0.5% group): 11.69 ± 0.13 D
- Refractive power, BR: right eye before MFD ([2]; Atropine 0.5% group): 11.61 ± 0.1 D
- Refractive power, FL: left eye after MFD ([2]; Atropine 0.5%): 8.58 ± 0.12 D
- Refractive power, FR: right eye after MFD (occluded eye) ([2]; Atropine 0.5%): 6.72 ± 0.11 D
- Refractive power, FL: left eye after MFD [2, 8]: 8.58±0.12 D
- Refractive power, FR: right eye after MFD (occluded eye) [2, 8]: 6.72±0.11 D
- Refractive error FR-BR ([2]; Atropine 0.5%): −4.89 ± 0.18 D
- Refractive error FL-BL ([2]; Atropine 0.5%): −3.11 ± 0.19 D
- Refractive power, BL: left eye before MFD ([2]; Atropine 1% group): 11.85 ± 0.18 D
- Refractive power, BR: right eye before MFD ([2]; Atropine 1% group): 11.79 ± 0.15 D
- Refractive power, FL: left eye after MFD ([2]; Atropine 1%): 10.79 ± 0.16 D
- Refractive power, FR: right eye after MFD (occluded eye) ([2]; Atropine 1%): 7.06 ± 0.29 D
- Refractive power, FL: left eye after MFD [2, 9]: 10.79±0.16 D
- Refractive power, FR: right eye after MFD (occluded eye) [2, 9]: 7.06±0.29 D
- Refractive error FR-BR ([2]; Atropine 1%): −4.74 ± 0.39 D
- Refractive error FL-BL ([2]; Atropine 1%): −1.06 ± 0.22 D
- Chrm5 gene expression level [3]: 0.78 ± 0.24
- Chrm 1 gene expression level [3, 10]: 0.65 ± 0.16
- Chrm 2 gene expression level [3, 10]: 1.96 ± 0.2
- Chrm 3 gene expression level [3, 10]: 0.78 ± 0.11
- Chrm 4 gene expression level [3, 10]: 0.81 ± 0.23
- Fos gene expression level [3, 10]: 0.76 ± 0.17
- IL1b gene expression level [3, 10]: 0.17 ± 0.24
- IL10 gene expression level [3, 10]: 1.81 ± 0.15
- IL-6 gene expression level [3, 10]: 0.86 ± 0.19
- MMP2 gene expression level [3, 10]: 0.75 ± 0.16
- NFkB gene expression level [3, 10]: 0.85 ± 0.08
- Tgfb1 gene expression level [3, 10]: 0.82 ± 0.11
- Tnfa gene expression level [3, 10]: 0.84 ± 0.24
- IL-6 and TNF-α immunoreactivity in the retina of MFD eyes ([4]; 1% atropine): reduced
- c-Fos and NF-κB expression in the retinas of MFD eyes ([4]; 1% atropine): suppressed
- COL1 expression in the sclera of the MFD eye ([4]; 1% atropine compared with PBS): increased
- MMP2 expression in the sclera of the MFD eye ([4]; 1% atropine compared with PBS): decreased
- MFD upregulation of TGF-β level in retina and sclera ([4]; atropine): suppressed
- IL-10 expression ([4]; atropine treatment): elevated
- CHRM1 and CHRM 3 expression in MFD eyes ([4]; atropine treatment compared with PBS-treated MFD eyes): downregulated
- Chrm5 gene expression level [5]: 0.98 ± 0.12
- Chrm 1 gene expression level [5, 11]: 0.73 ± 0.11
- Chrm 2 gene expression level [5, 11]: 1.24 ± 0.14
- Chrm 3 gene expression level [5, 11]: 0.70 ± 0.23
- Chrm 4 gene expression level [5, 11]: 1.11 ± 0.17
- Fos gene expression level [5, 11]: 0.93 ± 0.17
- IL1b gene expression level [5, 11]: 0.75 ± 0.13
- IL10 gene expression level [5, 11]: 1.05 ± 0.21
- IL-6 gene expression level [5, 11]: 0.79 ± 0.18
- MMP2 gene expression level [5, 11]: 0.74 ± 0.19
- NFkB gene expression level [5, 11]: 0.36 ± 0.3
- Tgfb1 gene expression level [5, 11]: 0.48 ± 0.24
- Tnfa gene expression level [5, 11]: 0.80 ± 0.2
- MMP2 activities in cells activated by LPS [6]: decreased
